We go through 14 compounds from PubChem BioAssay (NCI).

Among the test systems are 786-0 renal; EKVX NSCLC; HCT-116 colon; HCT-15 colon; HT29 colon; NCI-H522 lung; NCI/ADR-RES ovarian; SF-268 CNS; SK-MEL-5 melanoma; SW-620 colon; COLO 205 colon.
Test in all cases: growth of human tumour cells (NCI), 48 h

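Test compounds were applied to cells in 96-well plates for 48 hours at 5 doses. The concentration for full growth arrest is given as TGI.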

Take `CN(C)c1ccc(-c2ccc(N(C)C)c3n[se]nc23)c2n[se]nc12`: the TGI in the assay with 786-0 renal, in the assay on EKVX NSCLC, in the assay with HCT-116 colon, in the assay on HCT-15 colon, with HT29 colon and in the assay with NCI-H522 lung was over 100 µM in each case. Also, the TGI in the assay with NCI/ADR-RES ovarian, with SF-268 CNS, with SK-MEL-5 melanoma and in the assay with SW-620 colon was over 100 µM each time.
As for `C[C@@H]1C2=CC[C@@]3(C)C(CCC3[C@H](C)[C@H]3C[C@@]4(C)O[C@@](c5cccnc5)(O3)OC4(C)C)[C@@H]2C2OC2[C@@]12CCC(=O)O2` (some centres undefined), the TGI in the assay on 786-0 renal was over 100 µM; in the assay with COLO 205 colon, 77.2 µM; in the assay with HCT-116 colon, over 100 µM; with HCT-15 colon it was over 100 µM; in the assay on HT29 colon, over 100 µM; in the assay with NCI-H522 lung it was over 100 µM. In addition, the TGI with SF-268 CNS is over 100 µM; in the assay on SK-MEL-5 melanoma it was 78.1 µM; with SW-620 colon, over 100 µM.
For `Cc1cnc2c(c1)C(=O)C1=C(OC(C)(C)CC1O)C2=O` (centres undefined), the TGI in the assay with 786-0 renal stood at 28.2 µM; in the assay on COLO 205 colon, 32.4 µM; in the assay with EKVX NSCLC, 36.4 µM; with HCT-116 colon, 27.9 µM; in the assay with HCT-15 colon, 36.2 µM; in the assay on HT29 colon it was 43.6 µM. Besides, the TGI in the assay on NCI-H522 lung turned out to be 31.4 µM; in the assay on SF-268 CNS, 37.2 µM; in the assay with SK-MEL-5 melanoma it was 26.9 µM; in the assay with SW-620 colon, 28.5 µM.
In the case of `O=C1NC(=O)/C(=C/c2ccc(S(=O)(=O)N/N=C\C(O)C(O)C(O)C(O)CO)cc2)N1` (centres undefined), the TGI in the assay with 786-0 renal, in the assay on COLO 205 colon, in the assay with EKVX NSCLC, in the assay on HCT-116 colon, in the assay with HCT-15 colon and in the assay with HT29 colon was over 100 µM each time. For the same compound, the TGI in the assay with NCI/ADR-RES ovarian, in the assay with SF-268 CNS, in the assay on SK-MEL-5 melanoma and in the assay on SW-620 colon was over 100 µM each time.
Regarding `CCCCOCc1cc(CN2CCN(C)CC2)c(O)c2ncccc12`, the TGI in the assay with 786-0 renal was 50.7 µM; in the assay with COLO 205 colon, over 100 µM; with EKVX NSCLC, over 100 µM; in the assay on HCT-116 colon it was 87 µM; in the assay on HCT-15 colon, 33.7 µM; in the assay on HT29 colon, over 100 µM. In addition, the TGI was over 100 µM with NCI-H522 lung, over 100 µM with SF-268 CNS, 26.8 µM in the assay on SK-MEL-5 melanoma and 81.4 µM in the assay with SW-620 colon.
Consider `O=[N+]([O-])/C(C(Cl)=C(Cl)Cl)=C(\Nc1ccccc1)n1nnc2ccccc21`, for which the TGI in the assay on 786-0 renal, in the assay on COLO 205 colon, with EKVX NSCLC, in the assay on HCT-116 colon, in the assay with HCT-15 colon and in the assay with HT29 colon was over 100 µM in each case. Besides, the TGI is over 100 µM in the assay on NCI/ADR-RES ovarian, 36.3 µM in the assay with SF-268 CNS and over 100 µM with SW-620 colon.
Regarding `N#Cc1nc(-c2ccccn2)oc1N`, the TGI in the assay with 786-0 renal, with COLO 205 colon, in the assay with EKVX NSCLC, in the assay on HCT-116 colon, in the assay with HCT-15 colon and in the assay with HT29 colon was over 100 µM in each case. The TGI in the assay with NCI-H522 lung, in the assay with SF-268 CNS, with SK-MEL-5 melanoma and in the assay with SW-620 colon was over 100 µM each time.
As to `COc1cc([C@@]23OC[C@@H]4[C@@H](OC[C@@H]42)c2cc4c(cc23)OCO4)cc(OC)c1OC`, the TGI is over 100 µM in the assay on 786-0 renal; over 100 µM with HCT-116 colon; over 100 µM in the assay with HCT-15 colon; over 100 µM in the assay on HT29 colon; under 0.01 µM in the assay on NCI-H522 lung; under 0.01 µM in the assay with NCI/ADR-RES ovarian. For the same compound, the TGI in the assay with SF-268 CNS and in the assay on SW-620 colon was over 100 µM each time.
On to `Fc1cccc(Cl)c1C1SCc2nc3cc4ccccc4cc3n21` (centres undefined), for which the TGI in the assay on 786-0 renal, in the assay on COLO 205 colon, with EKVX NSCLC, with HCT-116 colon, with HCT-15 colon and with HT29 colon was over 100 µM throughout. Besides, the TGI in the assay with NCI/ADR-RES ovarian, with SF-268 CNS and in the assay with SW-620 colon was over 100 µM in each case.
Turning to `CC1(C)OCC([C@H]2CC23SCCCS3)O1` (some centres undefined), the TGI with 786-0 renal, in the assay with COLO 205 colon, in the assay with EKVX NSCLC, with HCT-116 colon, with HCT-15 colon and with HT29 colon was over 100 µM each time. The TGI in the assay on NCI-H522 lung, in the assay with SF-268 CNS and in the assay on SK-MEL-5 melanoma was over 100 µM each time.
Regarding `Nc1nc2ccc(OCC(O)CN3CCCCC3)cc2[n+]([O-])n1` (centres undefined), the TGI in the assay on 786-0 renal, in the assay on COLO 205 colon, with HCT-116 colon, with HCT-15 colon, in the assay on HT29 colon and in the assay on NCI-H522 lung was over 100 µM throughout. The TGI in the assay with NCI/ADR-RES ovarian, with SK-MEL-5 melanoma and in the assay on SW-620 colon was over 100 µM in each case.
`Cc1cc(=O)[nH]c(NNC(C#N)c2c(O)ccc3ccccc23)n1` (centres undefined): the TGI with 786-0 renal was found to be 79.8 µM; with COLO 205 colon, 57 µM; with HCT-116 colon, 17.1 µM; in the assay on HCT-15 colon it was 18.8 µM; in the assay with HT29 colon, 88.4 µM; in the assay with NCI-H522 lung, 23.7 µM. In addition, the TGI with SF-268 CNS came to 40.7 µM; in the assay with SK-MEL-5 melanoma, 13 µM; in the assay with SW-620 colon, 29.9 µM.
Regarding `CC1(S)CC2C(CC1Sc1ccccc1)C2(C)C` (centres undefined), the TGI in the assay with 786-0 renal, with COLO 205 colon, in the assay with EKVX NSCLC, with HCT-116 colon, with HCT-15 colon and in the assay on HT29 colon was over 100 µM each time. The TGI in the assay on SF-268 CNS and in the assay with SK-MEL-5 melanoma was over 100 µM throughout.
Turning to `CC(=O)c1cccc(NC(=O)C(=O)C(c2cnc3ccc([N+](=O)[O-])cc3n2)[N+](=O)[O-])c1` (centres undefined), the TGI in the assay on 786-0 renal, with COLO 205 colon, in the assay on EKVX NSCLC, in the assay on HCT-116 colon, in the assay with HCT-15 colon and in the assay on HT29 colon was over 100 µM throughout. The TGI in the assay on NCI/ADR-RES ovarian, in the assay with SF-268 CNS and in the assay with SW-620 colon was over 100 µM throughout.
